We go through ten compounds from patent US20090170945A1, “[…]” (priority 2007, published 2009).

Counter-ions that a name gives are not always drawn.

Data set [1] is described as follows: Formation of impurities during salt formation (HPLC) and stability studies. The note with it: for stability / impurities during salt formation: HPLC after the salt formation. On the procedure: Formation of impurities during the salt forming process was tested by analyzing the samples by HPLC after the salt formation. Salts were also subjected to stability studies in the solid state; particularly, they were subjected to storage at 40 C and 75% RH in the open dish.

The nature of data set [2]: Thermogravimetric measurements.
Data set [3] is described as follows: Hygroscopicity of solid state salts under storage at ambient and humid conditions. It is filed as physicochemical. The conditions noted are these: for hygroscopicity: storage at ambient and humid (40 C, 75% RH) conditions.
Method: Hygroscopicity of solid state pregabalin salts that passed the salt formation criterion were tested under storage at ambient and humid (40 C, 75% RH) conditions.
For data set [4] the following is noted: per WO 96/40617; cited from earlier work.
For data set [5] the following is noted: cited from earlier work.
A short description of data set [6]: Solubility in organic solvents. It is filed as physicochemical. The text has this:
Pregabalin is obtainable by known methods, such as those described in EPB 641 330. […].
Suitable solvents include aliphatic cyclic ethers (e.g. dioxane), esters, and ketones (each of the ethers, esters, and ketones having 3 to 12 carbon atoms), and mixtures thereof as well as mixtures with water. The solubility may be enhanced by heating the reaction mixture. The presence of water enhances the solubility of both reagents (i.e., the pregabalin and the corresponding acid) substantially. Due to the high water solubility of the salt, however, the amount of water in the solvent should be minimized prior to the isolation of the salt (e.g. by evaporation of the solvent prior to the isolation), and preferably water is excluded from the solvent entirely. On the other hand, it was shown that the pregabalin salts of the invention are only slightly soluble in aliphatic ethers (such as diisopropyl ether and methyl tert. butyl ether) so that aliphatic ethers may be used as solvents in the salt forming reaction or as antisolvents for the isolation. Furthermore, alcohols as solvents are preferably avoided, as they may be esterified in the presence of the sulfonic acid to yield corresponding esters as byproducts. Thus alcoholic solvents and other non-inert solvents (e.g. solvents that will react under the salt forming conditions) are generally avoided.

For the compound pregabalin mesylate, the “stability / impurities during salt formation” value in data set [1] is recorded as “stable”.
Turning to “Pregabalin p-toluene Sulfonate [pregabalin tosylate]”, in data set [1], the “stability in solid state and in solution (overall statement)” value is “stable in both the solid state and in solution”; the “stability / impurities during salt formation” value is on record as “stable”. Moreover, the “thermal stability (thermogravimetry), stable up to” value in data set [2] was 160-170 °C.
As for `CC(C)C[C@H](CN)CC(=O)O` [pregabalin hydrochloride], in data set [3], the hygroscopicity entry is recorded as “liquefied”.
`CC(C)C[C@H](CN)CC(=O)O.O=C(O)[C@@H](O)c1ccccc1` [pregabalin mandelate, Pregabalin (S)-mandelate]: in data set [1] (aqueous solution, lactam impurity), the “stability in aqueous solutions” value is “unstable”. Also, in data set [4], the “hydrolysis in water to free pregabalin” value was “easily hydrolyzes in water”.
For fumarate, in data set [1], the “stability / impurities during salt formation” value is given as “formed with by-products”.
Consider “Pregabalin Benzene Sulfonate [pregabalin besylate]”, for which, in data set [1], the “stability in solid state and in solution (overall statement)” value was “stable in both the solid state and in solution”; the “stability / impurities during salt formation” value is listed as “stable”. In data set [3], the hygroscopicity entry is reported as “non-hygroscopic”. Besides, the “thermal stability (thermogravimetry), stable up to” value in data set [2] is 160-170 °C.
For `CC(C)C[C@H](CN)CC(=O)O` [Pregabalin, S-(+)-4-amino-3-(2-methylpropyl)butanoic acid], in data set [5] (first of the two printed pKa values), the “pKa (acidic carboxy group)” value was 4.2. For the same compound, in data set [5] (second of the two printed pKa values), the “pKa (basic amino group)” value was 10.6. The solubility in ethanol entry in data set [6] is listed as “poorly soluble”.
Regarding `CC(C)C[C@H](CN)CC(=O)O.O=S(=O)(O)c1cccc2c(S(=O)(=O)O)cccc12` [napadisylate, pregabalin 1,5-naphthalene disulfonate], in data set [1] (40 C and 75% RH, open dish), the “solid state stability during prolonged storage” value is recorded as “unstable”. Further, in data set [1], the “stability / impurities during salt formation” value is listed as “stable”.
Turning to maleate, the “stability / impurities during salt formation” value in data set [1] was “formed with by-products”.
With `CC(C)C[C@H](CN)CC(=O)O.O=S(=O)(O)CCS(=O)(=O)O` [ethane-1,2-disulfonic acid salt], in data set [3], the hygroscopicity result is “very hygroscopic”. Besides, the “water uptake on storage in air” value in data set [3] (storage in air (R.T.) for 36 days) is reported as “formation of a dihydrate”.
